For assay [1], the target named is hNav1.3 (Homo sapiens, UniProt Q9NY46). Nature of the assay: cell-based. The conditions noted are these: IonWorks Quattro, Use; read-out: IWQ Use Nav1.3.
Assay [2] has as its target hNav1.5 (Homo sapiens, UniProt Q14524). In words: cell-based.
Where [3] appears, read: IonWorks Quattro, Use, read-out: IWQ Use Nav1.5.

Read-outs that look alike come from different tables or passages of the source. Positions of bridges follow the written chain, without caps; N, C: chain ends. Residues, ends and D or L forms follow the SMILES beside them.

hNav1.5, sequence (Q14524 whole entry, looked up): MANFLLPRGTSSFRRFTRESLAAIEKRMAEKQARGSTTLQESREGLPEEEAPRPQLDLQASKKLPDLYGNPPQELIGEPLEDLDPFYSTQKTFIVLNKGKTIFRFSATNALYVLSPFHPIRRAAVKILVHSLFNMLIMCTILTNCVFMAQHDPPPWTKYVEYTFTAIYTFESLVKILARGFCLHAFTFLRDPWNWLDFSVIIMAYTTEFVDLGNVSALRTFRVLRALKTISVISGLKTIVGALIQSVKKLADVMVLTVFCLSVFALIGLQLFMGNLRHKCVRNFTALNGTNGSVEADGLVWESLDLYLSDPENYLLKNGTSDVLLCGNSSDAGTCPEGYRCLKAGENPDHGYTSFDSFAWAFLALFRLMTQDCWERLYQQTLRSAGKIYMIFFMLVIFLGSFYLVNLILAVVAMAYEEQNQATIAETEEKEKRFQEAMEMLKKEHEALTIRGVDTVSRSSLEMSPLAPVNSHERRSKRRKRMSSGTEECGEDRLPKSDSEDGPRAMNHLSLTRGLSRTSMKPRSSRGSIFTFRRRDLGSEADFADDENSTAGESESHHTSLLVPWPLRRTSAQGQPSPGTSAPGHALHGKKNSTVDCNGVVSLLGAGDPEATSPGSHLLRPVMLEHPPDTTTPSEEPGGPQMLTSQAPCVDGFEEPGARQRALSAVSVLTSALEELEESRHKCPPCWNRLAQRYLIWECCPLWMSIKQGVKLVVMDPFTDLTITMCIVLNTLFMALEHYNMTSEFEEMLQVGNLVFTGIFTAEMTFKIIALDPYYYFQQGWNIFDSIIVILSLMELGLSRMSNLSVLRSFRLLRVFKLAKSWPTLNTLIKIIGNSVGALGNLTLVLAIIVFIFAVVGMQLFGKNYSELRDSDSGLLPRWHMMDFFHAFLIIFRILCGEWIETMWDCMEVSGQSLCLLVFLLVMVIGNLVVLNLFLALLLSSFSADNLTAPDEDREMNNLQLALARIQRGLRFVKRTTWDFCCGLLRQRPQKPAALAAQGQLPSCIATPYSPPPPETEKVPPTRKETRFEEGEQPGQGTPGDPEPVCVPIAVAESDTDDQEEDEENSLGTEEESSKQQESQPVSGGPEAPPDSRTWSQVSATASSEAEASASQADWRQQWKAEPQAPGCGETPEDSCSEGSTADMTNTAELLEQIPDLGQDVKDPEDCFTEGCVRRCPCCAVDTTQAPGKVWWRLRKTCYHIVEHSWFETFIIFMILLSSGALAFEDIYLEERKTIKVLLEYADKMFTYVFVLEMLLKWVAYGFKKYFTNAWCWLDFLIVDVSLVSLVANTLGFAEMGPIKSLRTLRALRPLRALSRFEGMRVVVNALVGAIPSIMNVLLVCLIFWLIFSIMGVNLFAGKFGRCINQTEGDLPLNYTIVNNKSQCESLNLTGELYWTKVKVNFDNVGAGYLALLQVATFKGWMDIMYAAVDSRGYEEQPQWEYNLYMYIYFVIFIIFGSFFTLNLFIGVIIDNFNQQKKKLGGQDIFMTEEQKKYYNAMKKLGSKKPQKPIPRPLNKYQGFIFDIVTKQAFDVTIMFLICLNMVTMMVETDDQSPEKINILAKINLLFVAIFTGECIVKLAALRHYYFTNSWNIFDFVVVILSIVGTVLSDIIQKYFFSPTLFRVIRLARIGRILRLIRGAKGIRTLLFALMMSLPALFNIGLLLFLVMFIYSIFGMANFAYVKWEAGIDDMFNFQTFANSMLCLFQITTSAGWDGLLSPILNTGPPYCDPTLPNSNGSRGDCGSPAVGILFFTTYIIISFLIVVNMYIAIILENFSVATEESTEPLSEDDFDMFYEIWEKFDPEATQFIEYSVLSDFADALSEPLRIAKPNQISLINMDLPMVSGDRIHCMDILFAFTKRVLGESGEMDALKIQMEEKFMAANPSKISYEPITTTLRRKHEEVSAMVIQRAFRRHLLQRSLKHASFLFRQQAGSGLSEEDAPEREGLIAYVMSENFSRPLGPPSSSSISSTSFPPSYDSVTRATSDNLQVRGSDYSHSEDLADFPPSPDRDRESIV
hNav1.3, sequence (Q9NY46 whole entry, looked up): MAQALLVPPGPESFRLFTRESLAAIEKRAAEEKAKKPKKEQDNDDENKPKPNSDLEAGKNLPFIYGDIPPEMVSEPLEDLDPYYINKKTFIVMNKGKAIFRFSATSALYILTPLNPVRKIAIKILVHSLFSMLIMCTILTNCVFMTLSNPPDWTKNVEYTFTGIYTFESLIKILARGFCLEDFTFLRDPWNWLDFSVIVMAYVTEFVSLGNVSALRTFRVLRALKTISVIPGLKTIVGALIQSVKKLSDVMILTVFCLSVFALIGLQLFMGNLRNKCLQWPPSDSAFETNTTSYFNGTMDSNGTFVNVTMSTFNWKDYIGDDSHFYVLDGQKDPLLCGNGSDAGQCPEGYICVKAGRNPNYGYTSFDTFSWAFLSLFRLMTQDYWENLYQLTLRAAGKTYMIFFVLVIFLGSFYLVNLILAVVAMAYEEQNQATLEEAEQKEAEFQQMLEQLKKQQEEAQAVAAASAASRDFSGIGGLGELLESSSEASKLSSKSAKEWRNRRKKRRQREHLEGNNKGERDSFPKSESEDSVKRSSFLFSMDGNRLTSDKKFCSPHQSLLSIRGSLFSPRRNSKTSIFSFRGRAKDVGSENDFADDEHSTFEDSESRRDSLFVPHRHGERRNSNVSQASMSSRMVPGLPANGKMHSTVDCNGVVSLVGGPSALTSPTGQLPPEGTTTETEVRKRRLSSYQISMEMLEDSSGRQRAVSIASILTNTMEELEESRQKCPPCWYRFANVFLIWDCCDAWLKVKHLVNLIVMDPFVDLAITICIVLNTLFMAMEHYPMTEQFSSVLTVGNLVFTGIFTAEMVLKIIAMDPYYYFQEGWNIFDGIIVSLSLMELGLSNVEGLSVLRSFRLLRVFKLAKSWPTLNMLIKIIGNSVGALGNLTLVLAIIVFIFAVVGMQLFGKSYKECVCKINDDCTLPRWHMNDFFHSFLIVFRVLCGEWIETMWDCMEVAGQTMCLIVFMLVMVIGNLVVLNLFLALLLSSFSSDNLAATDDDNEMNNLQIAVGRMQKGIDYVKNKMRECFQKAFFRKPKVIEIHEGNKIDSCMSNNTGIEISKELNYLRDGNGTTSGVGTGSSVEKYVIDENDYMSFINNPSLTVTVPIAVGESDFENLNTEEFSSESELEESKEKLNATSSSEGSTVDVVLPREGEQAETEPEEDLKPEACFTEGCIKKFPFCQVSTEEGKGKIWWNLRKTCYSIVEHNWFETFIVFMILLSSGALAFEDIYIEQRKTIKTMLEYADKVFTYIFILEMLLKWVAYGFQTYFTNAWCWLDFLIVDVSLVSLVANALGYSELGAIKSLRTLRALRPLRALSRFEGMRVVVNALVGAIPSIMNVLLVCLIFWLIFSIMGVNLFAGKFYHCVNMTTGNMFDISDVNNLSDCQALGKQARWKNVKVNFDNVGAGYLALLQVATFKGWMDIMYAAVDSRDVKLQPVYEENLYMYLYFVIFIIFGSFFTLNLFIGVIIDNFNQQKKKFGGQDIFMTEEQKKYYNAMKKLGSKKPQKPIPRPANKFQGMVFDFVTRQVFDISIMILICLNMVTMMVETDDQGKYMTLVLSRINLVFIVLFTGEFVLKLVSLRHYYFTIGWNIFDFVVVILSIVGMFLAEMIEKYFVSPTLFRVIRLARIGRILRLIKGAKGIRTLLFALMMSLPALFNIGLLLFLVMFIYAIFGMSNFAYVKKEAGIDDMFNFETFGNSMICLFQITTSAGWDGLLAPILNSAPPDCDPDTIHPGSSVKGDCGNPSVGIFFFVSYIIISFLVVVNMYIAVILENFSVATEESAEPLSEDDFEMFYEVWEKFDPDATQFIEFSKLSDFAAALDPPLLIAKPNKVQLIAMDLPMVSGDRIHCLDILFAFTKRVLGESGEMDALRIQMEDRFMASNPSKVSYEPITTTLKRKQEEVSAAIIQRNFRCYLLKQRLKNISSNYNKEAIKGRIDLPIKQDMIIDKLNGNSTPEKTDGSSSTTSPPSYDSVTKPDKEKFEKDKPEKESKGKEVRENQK

As for `CC[C@H](C)[C@@H]1NC(=O)[C@@H]2CSSC[C@@H]3NC(=O)[C@H](C(C)C)NC(=O)[C@H](CC(C)C)NC(=O)[C@H](CC(N)=O)NC(=O)[C@@H]4CCCN4C(=O)[C@H](CCC(=O)O)NC(=O)[C@H](CSSC[C@H](NC(=O)[C@@H](N)CC(=O)O)C(=O)N[C@@H](CC(C)C)C(=O)NCC(=O)N[C@@H](Cc4ccccc4)C(=O)N[C@@H](CCSC)C(=O)N[C@@H](CCCNC(=N)N)C(=O)N[C@@H](CCCCN)C(=O)N2)NC(=O)[C@H](CSSC[C@@H](C(=O)N[C@@H](CCCCN)C(=O)N[C@@H](Cc2ccc(O)cc2)C(=O)N[C@H](C(=O)N[C@@H](Cc2ccccc2)C(N)=O)C(C)C)NC(=O)[C@H](Cc2c[nH]c4ccccc24)NC(=O)[C@H](CCCCN)NC(=O)[C@H](Cc2cnc[nH]2)NC(=O)[C@H]([C@@H](C)O)NC(=O)[C@H](CCCNC(=N)N)NC(=O)[C@H](CO)NC3=O)NC(=O)[C@H](CCCCN)NC(=O)[C@H](CC(=O)O)NC(=O)[C@H](CC(N)=O)NC(=O)[C@H](CC(=O)O)NC(=O)[C@@H]2CCCN2C1=O` [compound 148] (H-DCLGFMRKCIPDNDKCCEPNLVCSRTHKWCKYVF-NH2; disulfide 2-17, 9-23, 16-30), the figures for the IC50 in assay [1] and in assay [2] (setting [3]) were 0.21 µM and 14.6 µM, respectively.
For the compound `CC[C@H](C)[C@@H]1NC(=O)[C@@H]2CSSC[C@@H]3NC(=O)[C@H](C(C)C)NC(=O)[C@H](CC(C)C)NC(=O)[C@H](CC(N)=O)NC(=O)[C@H](CCCNC(=N)N)NC(=O)[C@H](CCCNC(=N)N)NC(=O)[C@H](CSSC[C@H](NC(=O)[C@@H](N)CC(=O)O)C(=O)N[C@@H](CC(C)C)C(=O)NCC(=O)N[C@@H](Cc4ccccc4)C(=O)N[C@@H](CCSC)C(=O)N[C@@H](CCCNC(=N)N)C(=O)N[C@@H](CCCCN)C(=O)N2)NC(=O)[C@H](CSSC[C@@H](C(=O)N[C@@H](CCCCN)C(=O)N[C@@H](Cc2ccc(O)cc2)C(=O)N[C@H](C(=O)N[C@@H](Cc2ccccc2)C(N)=O)C(C)C)NC(=O)[C@H](Cc2c[nH]c4ccccc24)NC(=O)[C@H](CCCCN)NC(=O)[C@H](Cc2cnc[nH]2)NC(=O)[C@H]([C@@H](C)O)NC(=O)[C@H](CCCNC(=N)N)NC(=O)[C@H](CO)NC3=O)NC(=O)[C@H](CCCCN)NC(=O)[C@H](CC(=O)O)NC(=O)[C@H](CC(N)=O)NC(=O)[C@H](CC(=O)O)NC(=O)[C@@H]2CCCN2C1=O` [compound 157] (H-DCLGFMRKCIPDNDKCCRRNLVCSRTHKWCKYVF-NH2; disulfide 2-17, 9-23, 16-30), the IC50 in assay [1] was 0.06 µM; in assay [2] (setting [3]) it was 6.16 µM.
On to `CC[C@H](C)[C@@H]1NC(=O)[C@@H]2CSSC[C@@H]3NC(=O)[C@H](CCCNC(=N)N)NC(=O)[C@H](CC(C)C)NC(=O)[C@H](CC(N)=O)NC(=O)[C@@H]4CCCN4C(=O)[C@H](CCCNC(=N)N)NC(=O)[C@H](CSSC[C@H](NC(=O)[C@@H](N)CC(=O)O)C(=O)N[C@@H](CC(C)C)C(=O)NCC(=O)N[C@@H](Cc4ccccc4)C(=O)N[C@@H](CCSC)C(=O)N[C@@H](CCCNC(=N)N)C(=O)N[C@@H](CCCCN)C(=O)N2)NC(=O)[C@H](CSSC[C@@H](C(=O)N[C@@H](CCCCN)C(=O)N[C@@H](Cc2ccc(O)cc2)C(=O)N[C@H](C(=O)N[C@@H](Cc2ccccc2)C(N)=O)C(C)C)NC(=O)[C@H](Cc2c[nH]c4ccccc24)NC(=O)[C@H](CCCCN)NC(=O)[C@H](Cc2cnc[nH]2)NC(=O)[C@H]([C@@H](C)O)NC(=O)[C@H](CCCNC(=N)N)NC(=O)[C@H](CO)NC3=O)NC(=O)[C@H](CCCCN)NC(=O)[C@H](CC(=O)O)NC(=O)[C@H](CC(N)=O)NC(=O)[C@H](CC(=O)O)NC(=O)[C@@H]2CCCN2C1=O` [compound 158] (H-DCLGFMRKCIPDNDKCCRPNLRCSRTHKWCKYVF-NH2; disulfide 2-17, 9-23, 16-30), for which the IC50 in assay [1] is 0.03 µM; in assay [2] (IWQ Use Nav1.5 (μM)), 8.2 µM.

(Values after patent US9340590B2 (priority 2011, dated 2016).)
